This note sets out measurements from patent US20250302929A1, “TUMOR NEOANTIGENIC PEPTIDES” (INSTITUT CURIE, priority 2021, published 2025).

Entries after “also recorded” stand apart in the source; their conditions may differ.

Assay [1] relates to CD8+ T cells from HLA-A2+ healthy donors. Put plainly: Priming of naive CTLs, in vitro immunogenicity assay, tetramer staining. The assay is classed as cell-based, human. As to conditions: for expansion of specific CD8+ T cells (tetramer positive): one donor, versus co-culture without peptides; for specific CD8+ T expansions (immunogenicity): total of 6 donors, FIG. 11A. The procedure:
Priming of naïve CTLs. PBMCs were obtained by Ficoll gradient separation from HLA-A2+ healthy blood donors. CD14+, CD4+ and CD8+ cells were purified by positive selection using magnetic beads (Miltenyi Biotec). While CD4+ and CD8+ T cells were cryopreserved until the experiment day, CD14+ fraction was cultured in the presence of IL-4 (50 ng/ml) and GM-CSF (10 ng/mL) at 10^6 cells/mL during 5 days to obtain moDCs. After this period of time, the moDCs were maturated with LPS and incubated with synthetic ER-derived peptides at a final concentration of 1 μg/mL for 2 hours. Finally, peptide-loaded moDCs were co-cultured with autologous CD4+ and CD8+ T cells in culture medium supplemented with IL-2 (10U/ml) and IL-7 (100 ng/ml). The ER-derived peptide stimulation of specific CD8+ CTL populations was assessed by MHC-I tetramer staining by flow cytometry using a combination of two-color tetramer for each peptide.
(§1) Tetramer Staining. Cells were resuspended in PBS, stained with Live/Dead Aqua-405 nm (ThermoFisher) during 20 minutes at 4° C. and washed once. After that, cells were resuspended in PBS-1% BSA containing the mix of SA-coupled tetramers and incubated in the dark at room temperature during 20 minutes. Without further washing, surface antibodies were added in PBS-1% BSA and cells were incubated 20 minutes in the dark at 4° C. Surface antibodies were a combination of anti-CD3-BV650+ anti-CD8-PECy7 in combination with anti-CCR7-AF700+ anti-CD45RA-BUV395 when required. Finally, cells were washed twice and resuspended in FACS buffer for flow cytometry analysis.
The following step after binding validation to HLA-A2 allele, was to test the immunogenicity of predicted peptides. Priming assays were thus performed to test the ability of identified peptides to expand specific cytotoxic T cells. PBMCs from HLA-A2+ healthy donors were used to generate monocyte derived-DCs (moDCs). After loading the moDCs with a mix of synthetic peptides, autologous co-culture was performed with CD4+ and CD8+ T cells. Finally, the expansion of specific CD8+ T cells was analysed by flow cytometry using two-colours tetramer staining. As a control of specific expansion, the co-culture was performed in the absence of peptides.

The test system of assay [2] is CD8+ T cells from tumor, juxta tumor, lymph nodes and blood of LUAD patients. Kind of assay: Tetramer staining of TILs and CD8+ T cells from LUAD patient samples. To be noted: TILs from LUAD patients expanded with peptide mix + IL-2 or IL-2 only. It counts as cell-based, human. The procedure: In experiments addressed to evaluate the presence of specific CD8+ T cells, the tetramerization step was performed by incubating the monomers with different combinations of fluorescent streptavidin (PE, APC, PE-Cy5, PE-CF594, BV421, BV711 and FITC).
as §1, with “analysis. […]” for “analysis.”
Tumor infiltrating lymphocytes (TILs) cultures. […] Cells were feed/split as necessary during 15-20 days and cryopreserve or analyzed for tetramer staining.
In a first set of experiments tumor infiltrating lymphocytes (TILs) expanded with a mix of TE-derived peptides and Il-2, or only with Il-2, were analyzed by tetramer staining. […]
In a second cohort of 5 primary, untreated, LUAD tumor, juxta-tumor, tumor-draining lymph node and blood samples from LUAD cancer HLA-A2+ patients were analyzed. […]

On to AILPKANTV, for which, in assay [1], the “expansion of specific CD8+ T cells (tetramer positive)” value (“expansion of specific CD8+ T cells” for short) is recorded as “expand specific CD8+ T cells” and the “specific CD8+ T expansions (immunogenicity)” value is given as “specific CD8+ T expansions”. For the sequence AMDGKELSL, the “specific CD8+ T expansions (immunogenicity)” value in assay [1] was “specific CD8+ T expansions”. For FLGTRVTRV, the “specific CD8+ T expansions (immunogenicity)” value in assay [1] was “specific CD8+ T expansions”.

In the case of FLIVAEILI, the “expansion of specific CD8+ T cells” value in assay [1] is “expand specific CD8+ T cells”. Consider GLLNISHTA, for which the “specific CD8+ T expansions (immunogenicity)” value in assay [1] was “specific CD8+ T expansions”. For GLPSHVELA, in assay [2], the “tetramer positive CD8+ T cells in TILs” value is “TILs recognizing”. Besides, in assay [1], the “specific CD8+ T expansions (immunogenicity)” value was “specific CD8+ T expansions; also recorded: immunogenic”.

Turning to ILHSLVTGV, the “specific CD8+ T expansions (immunogenicity)” value in assay [1] is “specific CD8+ T expansions”.

With ILSGYGPCV, the “specific CD8+ T expansions (immunogenicity)” value in assay [1] was “specific CD8+ T expansions”. Take ILTASITSI: the “specific CD8+ T expansions (immunogenicity)” value in assay [1] was “specific CD8+ T expansions”. Consider LLDRFGYHV, for which the “specific CD8+ T expansions (immunogenicity)” value in assay [1] was “specific CD8+ T expansions”. In the case of LLGETKVYV, in assay [1], the “expansion of specific CD8+ T cells” value is given as “expand specific CD8+ T cells” and the “specific CD8+ T expansions (immunogenicity)” value is “specific CD8+ T expansions”. With LLHLESFLV, the “specific CD8+ T expansions (immunogenicity)” value in assay [1] was “specific CD8+ T expansions”.

As for LLTSWHLYL, in assay [1], the “specific CD8+ T expansions (immunogenicity)” value is listed as “specific CD8+ T expansions”. On to MLMKTVWQA, for which the “specific CD8+ T expansions (immunogenicity)” value in assay [1] was “specific CD8+ T expansions”. Consider MLVTWELAL, for which the “specific CD8+ T expansions (immunogenicity)” value in assay [1] is “specific CD8+ T expansions”.

Consider RLADHLSFC, for which, in assay [1], the “expansion of specific CD8+ T cells” value is on record as “expand specific CD8+ T cells” and the “specific CD8+ T expansions (immunogenicity)” value is “specific CD8+ T expansions; also recorded: immunogenic”. In the case of RLLHLESFL, in assay [1], the “expansion of specific CD8+ T cells” value is given as “expand specific CD8+ T cells” and the “specific CD8+ T expansions (immunogenicity)” value is reported as “specific CD8+ T expansions”. In the case of RQAPGFHHA, the “specific CD8+ T expansions (immunogenicity)” value in assay [1] is reported as “specific CD8+ T expansions”.

As to SLMQSGSPV, the “specific CD8+ T expansions (immunogenicity)” value in assay [1] is given as “specific CD8+ T expansions”. Take VLLTNTIWL: the “specific CD8+ T expansions (immunogenicity)” value in assay [1] is reported as “specific CD8+ T expansions”. Still for that read-out and setting: under VLMWTMAHL stands “specific CD8+ T expansions”; under YLPYFLKSL, “specific CD8+ T expansions”. Still for that read-out and setting: under YLQGLPLPL stands “specific CD8+ T expansions”.

Turning to YLWTTFFPL, in assay [1], the “expansion of specific CD8+ T cells” value was “expand specific CD8+ T cells” and the “specific CD8+ T expansions (immunogenicity)” value is on record as “specific CD8+ T expansions”.
